Values of other authors as cited in patent publication EP3292864A1, “MODIFIED RELEASE TABLET COMPOSITION COMPRISING MIRABEGRON” (Synthon B.V., priority 2017, dated 2018).

solubility (per BCS class): high solubility
Structure (SMILES): Nc1nc(CC(=O)Nc2ccc(CCNC[C@H](O)c3ccccc3)cc2)cs1 [Mirabegron, (R)-2-(2-aminothiazol-4-yl)-4'-[2-[(2-hydroxy-2-phenylethyl)amino]ethyl]acetic acid anilide]
solubility in water (assessment report of Betmiga® published by the European Medicines Agency): soluble in water between neutral to acidic pH
